Measured values published in patent US6960574B2, “Antagonists of RF-amide neuropeptides” (University of Florida, priority 2002, dated 2005).
Peptide text beside a SMILES is read from it. * marks the point of attachment. Dansyl = CN(C)c1cccc2c(S(=O)(=O)*)cccc12

System: receptor labeled by the radioiodinated analogue of 1 (4, [125I]-YLFQPQRF-NH2); neuropeptide FF receptor
Experiment: Competitive radioligand binding against 4 ([125I]Y8F-amide)
Conditions: mixture-based positional scanning; difference from averaged radioligand displacement of whole library (0); about 80 a.u. = 10-fold change in Ki

Going from CN(C)c1cccc2c(S(=O)(=O)N[C@@H](Cc3ccc(O)cc3)C(=O)N[C@@H](CCCNC(=N)N)C(=O)N[C@@H](CCCNC(=N)N)C(N)=O)cccc12 [Dansyl-YRR-amide] (Dansyl-Tyr-Arg-Arg-NH2) to CN(C)c1cccc2c(S(=O)(=O)N[C@@H](Cc3ccc(O)cc3)C(=O)N[C@@H](CC(N)=O)C(=O)N[C@@H](CCCNC(=N)N)C(N)=O)cccc12 [Dansyl-YNR-amide] (Dansyl-Tyr-Asn-Arg-NH2), the “Relative Binding Index (RBI)” value rises from 6 a.u to 8 a.u.

Compared with CC[C@H](C)[C@H](NS(=O)(=O)c1cccc2c(N(C)C)cccc12)C(=O)N[C@@H](Cc1c[nH]cn1)C(=O)N[C@@H](CCCNC(=N)N)C(N)=O [Dansyl-IHR-amide] (Dansyl-Ile-His-Arg-NH2), CN(C)c1cccc2c(S(=O)(=O)N[C@@H](Cc3c[nH]cn3)C(=O)N[C@@H](CC(=O)O)C(=O)N[C@@H](CCCNC(=N)N)C(N)=O)cccc12 [Dansyl-HDR-amide] (Dansyl-His-Asp-Arg-NH2) is higher in “Relative Binding Index (RBI)” value: −17 a.u for the first, −1 a.u for the second.

First: CSCC[C@H](NS(=O)(=O)c1cccc2c(N(C)C)cccc12)C(=O)N[C@H](C(=O)N[C@@H](CCCNC(=N)N)C(N)=O)[C@@H](C)O [Dansyl-MTR-amide] (Dansyl-Met-Thr-Arg-NH2)
Second: CC(O)C(NC(=O)C(CCC(=O)O)NS(=O)(=O)c1cccc2c(N(C)C)cccc12)C(=O)NC(CCCNC(=N)N)C(N)=O (stereo not drawn) [Dansyl-ETR-amide] (Dansyl-Glu-Thr-Arg-NH2; configuration not given here)
The “Relative Binding Index (RBI)” value of the first is lower: −38 a.u for the first, 22 a.u for the second.

Going from C[C@@H](O)[C@H](NC(=O)[C@@H]1CCCN1S(=O)(=O)c1cccc2c(N(C)C)cccc12)C(=O)N[C@@H](CCCNC(=N)N)C(N)=O [Dansyl-PTR-amide] (Dansyl-Pro-Thr-Arg-NH2) to CN(C)c1cccc2c(S(=O)(=O)N3CCC[C@H]3C(=O)N[C@@H](CC(=O)O)C(=O)N[C@@H](CCCNC(=N)N)C(N)=O)cccc12 [Dansyl-PDR-amide] (Dansyl-Pro-Asp-Arg-NH2), the “Relative Binding Index (RBI)” value falls from −42 a.u to −66 a.u.

Compared with CN(C)c1cccc2c(S(=O)(=O)N3CCC[C@H]3C(=O)N[C@@H](CCCNC(=N)N)C(=O)N[C@@H](CCCNC(=N)N)C(N)=O)cccc12 [Dansyl-PRR-amide], CN(C)c1cccc2c(S(=O)(=O)NCC(=O)N[C@@H](CCCNC(=N)N)C(=O)N[C@@H](CCCNC(=N)N)C(N)=O)cccc12 [Dansyl-GRR-amide] is higher in “Relative Binding Index (RBI)” value: −49 a.u for the first, 24 a.u for the second.

Compared with CN(C)c1cccc2c(S(=O)(=O)N[C@@H](CC(=O)O)C(=O)N[C@@H](Cc3ccccc3)C(=O)N[C@@H](CCCNC(=N)N)C(N)=O)cccc12 [Dansyl-DFR-amide] (Dansyl-Asp-Phe-Arg-NH2), CC(C)[C@H](NS(=O)(=O)c1cccc2c(N(C)C)cccc12)C(=O)N[C@@H](Cc1ccccc1)C(=O)N[C@@H](CCCNC(=N)N)C(N)=O [Dansyl-VFR-amide] (Dansyl-Val-Phe-Arg-NH2) is higher in “Relative Binding Index (RBI)” value: −7 a.u for the first, −6 a.u for the second.

First: C[C@H](NS(=O)(=O)c1cccc2c(N(C)C)cccc12)C(=O)N[C@@H](CC(=O)O)C(=O)N[C@@H](CCCNC(=N)N)C(N)=O [Dansyl-ADR-amide] (Dansyl-Ala-Asp-Arg-NH2)
Second: C[C@H](NS(=O)(=O)c1cccc2c(N(C)C)cccc12)C(=O)N[C@@H](CO)C(=O)N[C@@H](CCCNC(=N)N)C(N)=O [Dansyl-ASR-amide] (Dansyl-Ala-Ser-Arg-NH2)
The “Relative Binding Index (RBI)” value of the first is lower: −6 a.u for the first, 33 a.u for the second.

Going from CN(C)c1cccc2c(S(=O)(=O)N[C@@H](CCCCN)C(=O)NCC(=O)N[C@@H](CCCNC(=N)N)C(N)=O)cccc12 [Dansyl-KGR-amide] (Dansyl-Lys-Gly-Arg-NH2) to C[C@H](NC(=O)[C@H](CCCCN)NS(=O)(=O)c1cccc2c(N(C)C)cccc12)C(=O)N[C@@H](CCCNC(=N)N)C(N)=O [Dansyl-KAR-amide] (Dansyl-Lys-Ala-Arg-NH2), the “Relative Binding Index (RBI)” value falls from 30 a.u to −24 a.u.

Compared with CC(C)C[C@H](NC(=O)[C@@H](NS(=O)(=O)c1cccc2c(N(C)C)cccc12)C(C)C)C(=O)N[C@@H](CCCNC(=N)N)C(N)=O [Dansyl-VLR-amide] (Dansyl-Val-Leu-Arg-NH2), CC(C)C[C@H](NC(=O)[C@H](CO)NS(=O)(=O)c1cccc2c(N(C)C)cccc12)C(=O)N[C@@H](CCCNC(=N)N)C(N)=O [Dansyl-SLR-amide] (Dansyl-Ser-Leu-Arg-NH2) is higher in “Relative Binding Index (RBI)” value: −13 a.u for the first, 8 a.u for the second.

Going from CN(C)c1cccc2c(S(=O)(=O)N[C@@H](CCCNC(=N)N)C(=O)N[C@@H](CCCCN)C(=O)N[C@@H](CCCNC(=N)N)C(N)=O)cccc12 [Dansyl-RKR-amide] (Dansyl-Arg-Lys-Arg-NH2) to CSCC[C@H](NC(=O)[C@H](CCCCN)NS(=O)(=O)c1cccc2c(N(C)C)cccc12)C(=O)N[C@@H](CCCNC(=N)N)C(N)=O [Dansyl-KMR-amide] (Dansyl-Lys-Met-Arg-NH2), the “Relative Binding Index (RBI)” value rises from 4 a.u to 25 a.u.

First: C[C@H](NS(=O)(=O)c1cccc2c(N(C)C)cccc12)C(=O)N[C@@H](CCCNC(=N)N)C(=O)N[C@@H](CCCNC(=N)N)C(N)=O [Dansyl-ARR-amide] (Dansyl-Ala-Arg-Arg-NH2)
Second: C[C@@H](O)[C@H](NS(=O)(=O)c1cccc2c(N(C)C)cccc12)C(=O)N[C@@H](CCCNC(=N)N)C(=O)N[C@@H](CCCNC(=N)N)C(N)=O [Dansyl-TRR-amide] (Dansyl-Thr-Arg-Arg-NH2)
The “Relative Binding Index (RBI)” value of the first is higher: 11 a.u for the first, −10 a.u for the second.

First: CN(C)c1cccc2c(S(=O)(=O)N3CCC[C@H]3C(=O)N[C@@H](Cc3c[nH]c4ccccc34)C(=O)N[C@@H](CCCNC(=N)N)C(N)=O)cccc12 [Dansyl-PWR-amide] (Dansyl-Pro-Trp-Arg-NH2)
Second: CN(C)c1cccc2c(S(=O)(=O)N[C@@H](Cc3c[nH]c4ccccc34)C(=O)N3CCC[C@H]3C(=O)N[C@@H](CCCNC(=N)N)C(N)=O)cccc12 [Dansyl-WPR-amide] (Dansyl-Trp-Pro-Arg-NH2)
The “Relative Binding Index (RBI)” value of the first is lower: −39 a.u for the first, 12 a.u for the second.

Going from C[C@H](NS(=O)(=O)c1cccc2c(N(C)C)cccc12)C(=O)N[C@H](C(=O)N[C@@H](CCCNC(=N)N)C(N)=O)[C@@H](C)O [Dansyl-ATR-amide] (Dansyl-Ala-Thr-Arg-NH2) to C[C@H](NS(=O)(=O)c1cccc2c(N(C)C)cccc12)C(=O)N[C@@H](CCC(N)=O)C(=O)N[C@@H](CCCNC(=N)N)C(N)=O [Dansyl-AQR-amide] (Dansyl-Ala-Gln-Arg-NH2), the “Relative Binding Index (RBI)” value rises from 18 a.u to 26 a.u.

Going from C[C@@H](O)[C@H](NC(=O)[C@H](CCCNC(=N)N)NS(=O)(=O)c1cccc2c(N(C)C)cccc12)C(=O)N[C@@H](CCCNC(=N)N)C(N)=O [Dansyl-RTR-amide] (Dansyl-Arg-Thr-Arg-NH2) to CC[C@H](C)[C@H](NS(=O)(=O)c1cccc2c(N(C)C)cccc12)C(=O)N[C@@H](CCC(N)=O)C(=O)N[C@@H](CCCNC(=N)N)C(N)=O [Dansyl-IQR-amide] (Dansyl-Ile-Gln-Arg-NH2), the “Relative Binding Index (RBI)” value falls from 12 a.u to 3 a.u.

Going from CN(C)c1cccc2c(S(=O)(=O)NCC(=O)N[C@@H](CCC(N)=O)C(=O)N[C@@H](CCCNC(=N)N)C(N)=O)cccc12 [Dansyl-GQR-amide, dansyl-Gly-Gln-Arg-NH2] (Dansyl-Gly-Gln-Arg-NH2) to CSCC[C@H](NS(=O)(=O)c1cccc2c(N(C)C)cccc12)C(=O)N[C@@H](CCC(N)=O)C(=O)N[C@@H](CCCNC(=N)N)C(N)=O [Dansyl-MQR-amide] (Dansyl-Met-Gln-Arg-NH2), the “Relative Binding Index (RBI)” value falls from 39 a.u to −30 a.u.

Going from CN(C)c1cccc2c(S(=O)(=O)N[C@@H](CCC(=O)O)C(=O)N3CCC[C@H]3C(=O)N[C@@H](CCCNC(=N)N)C(N)=O)cccc12 [Dansyl-EPR-amide] (Dansyl-Glu-Pro-Arg-NH2) to CN(C)c1cccc2c(S(=O)(=O)N[C@@H](Cc3ccc(O)cc3)C(=O)N3CCC[C@H]3C(=O)N[C@@H](CCCNC(=N)N)C(N)=O)cccc12 [Dansyl-YPR-amide] (Dansyl-Tyr-Pro-Arg-NH2), the “Relative Binding Index (RBI)” value falls from 20 a.u to 10 a.u.

Going from CN(C)c1cccc2c(S(=O)(=O)N[C@@H](Cc3ccccc3)C(=O)N[C@@H](CCCCN)C(=O)N[C@@H](CCCNC(=N)N)C(N)=O)cccc12 [Dansyl-FKR-amide] (Dansyl-Phe-Lys-Arg-NH2) to C[C@H](NC(=O)[C@H](Cc1c[nH]c2ccccc12)NS(=O)(=O)c1cccc2c(N(C)C)cccc12)C(=O)N[C@@H](CCCNC(=N)N)C(N)=O [Dansyl-WAR-amide] (Dansyl-Trp-Ala-Arg-NH2), the “Relative Binding Index (RBI)” value falls from 7 a.u to −40 a.u.

Compared with CN(C)c1cccc2c(S(=O)(=O)N[C@@H](Cc3c[nH]c4ccccc34)C(=O)NCC(=O)N[C@@H](CCCNC(=N)N)C(N)=O)cccc12 [Dansyl-WGR-amide] (Dansyl-Trp-Gly-Arg-NH2), CN(C)c1cccc2c(S(=O)(=O)NCC(=O)N[C@@H](Cc3c[nH]c4ccccc34)C(=O)N[C@@H](CCCNC(=N)N)C(N)=O)cccc12 [Dansyl-GWR-amide] (Dansyl-Gly-Trp-Arg-NH2) is higher in “Relative Binding Index (RBI)” value: 14 a.u for the first, 34 a.u for the second.

Going from CN(C)c1cccc2c(S(=O)(=O)N[C@@H](CCC(N)=O)C(=O)N[C@@H](CC(=O)O)C(=O)N[C@@H](CCCNC(=N)N)C(N)=O)cccc12 [Dansyl-QDR-amide] (Dansyl-Gln-Asp-Arg-NH2) to CSCC[C@H](NS(=O)(=O)c1cccc2c(N(C)C)cccc12)C(=O)N[C@@H](CCC(=O)O)C(=O)N[C@@H](CCCNC(=N)N)C(N)=O [Dansyl-MER-amide] (Dansyl-Met-Glu-Arg-NH2), the “Relative Binding Index (RBI)” value falls from 3 a.u to −44 a.u.
